Results published in patent publication US8338565B2, “Macrocyclic compounds for inhibition of tumor necrosis factor alpha” (Ensemble Therapeutics Corporation, priority 2008, dated 2012).
Like-named read-outs stand apart in the source and are kept apart here. Numbered stars: 1 amine (or outer) side, 2 acyl side, 3 side chain; on linkers, the order of the positions; unused ones are H or OH. Bridge positions count the residues as written; N and C are the ends. Square brackets hold non-standard residues; d marks the D form. Peptide text beside a SMILES is read from it. * marks the point of attachment. Phe(4-COOH) = N[C@@H](Cc1ccc(C(=O)O)cc1)C(=O)O; Bip = N[C@@H](Cc1ccc(-c2ccccc2)cc1)C(=O)O; Phe(4-NH2) = Nc1ccc(C[C@H](N)C(=O)O)cc1; d(hPhe) = N[C@H](CCc1ccccc1)C(=O)O; d2Thi = N[C@H](Cc1cccs1)C(=O)O; Suc = O=C(CCC(=O)[*:2])[*:1]; 3Abz = Nc1cccc(C(=O)O)c1; X1 = O=C(O)C1CCN(*)C1; GABA = NCCCC(=O)O

Target: T1, TNFα / TNFα receptor (TNFα R1/Fc) (Homo sapiens, UniProt P01375)
T1 construct: purchased R&D Systems
Experiment: Inhibition of binding of TNFα to the TNFα receptor (plate ELISA competition)
Details: Table 2
Procedure, shortened: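 Plates were coated with TNFα at 15 nM. Test compound and 8.33 nM receptor-Fc (PBST, 2% DMSO) were first mixed in solution for 30 min at room temperature, then transferred to the plates for another 30 min. Competition was read by absorbance at 450 nm after HRP anti-human IgG Fc detection with TMB.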

[1] = read-out: Activity (IC50, inhibition of TNFα binding to TNFα R1/Fc)
[2] = Activity (IC50, inhibition of TNFα binding to TNFα R1/Fc)

T1 sequence (P01375 77-233 limits assumed, species assumed): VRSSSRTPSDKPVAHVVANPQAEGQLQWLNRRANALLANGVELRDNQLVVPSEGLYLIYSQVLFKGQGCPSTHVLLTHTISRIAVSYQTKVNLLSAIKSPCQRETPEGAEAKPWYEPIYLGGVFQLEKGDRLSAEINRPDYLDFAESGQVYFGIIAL

IC50 [1] [µM]	Structure (SMILES)	IC50 [2] [µM]
10 to 30	O=C(OCc1ccccc1)c1ccc(-c2ccc(C[C@@H]3NC(=O)[C@@H](Cc4cccs4)NC(=O)[C@H](O)[C@@H](O)C(=O)Nc4ccc(cc4)C[C@@H](C(=O)O)NC(=O)[C@@H](Cc4ccccc4)NC3=O)cc2)cc1 [Compound 335]	–
10 to 30	O=C(Nc1ccc(-c2ccc(C[C@@H]3NC(=O)[C@@H](Cc4cccs4)NC(=O)[C@H](O)[C@@H](O)C(=O)Nc4ccc(cc4)C[C@@H](C(=O)O)NC(=O)[C@@H](Cc4ccccc4)NC3=O)cc2)cc1)OCc1ccccc1 [Compound 336]	–
> 100	O=C1N[C@H](CCc2ccccc2)C(=O)N[C@@H](Cc2ccc(-c3ccccc3)cc2)C(=O)N[C@H](Cc2ccccc2)C(=O)N[C@H](C(=O)O)Cc2ccc1cc2 [Compound 337] ([d(hPhe)][Bip][dF][Phe(4-COOH)]-OH; lactam N-4)	–
< 10	O=C(O)CN(Cc1ccccc1)C(=O)[C@@H]1Cc2ccc(cc2)OCC(=O)N[C@@H](Cc2cccs2)C(=O)N[C@@H](Cc2ccc(-c3ccccc3)cc2)C(=O)N[C@@H](Cc2ccccc2)C(=O)N1 [Compound 340]	–
10 to 30	COC(=O)[C@@H](CC(=O)O)NC(=O)[C@@H]1Cc2ccc(cc2)NC(=O)CCC(=O)N[C@H](CCc2ccccc2)C(=O)N[C@@H](Cc2ccc(-c3ccccc3)cc2)C(=O)N[C@H](Cc2ccccc2)C(=O)N1 [Compound 351] ([d(hPhe)][Bip][dF][Phe(4-NH2)][dD]-OMe; linker N-4 via Suc)	–
> 100	O=C1CCC(=O)N[C@H](CCc2ccccc2)C(=O)N[C@@H](Cc2ccc(-c3ccccc3)cc2)C(=O)N[C@H](Cc2ccccc2)C(=O)N[C@H](C(=O)Nc2cccc(C(=O)O)c2)Cc2ccc(cc2)N1 [Compound 352] ([d(hPhe)][Bip][dF][Phe(4-NH2)][3Abz]-OH; linker N-4 via Suc)	–
> 100	O=C1CCC(=O)N[C@H](CCc2ccccc2)C(=O)N[C@@H](Cc2ccc(-c3ccccc3)cc2)C(=O)N[C@H](Cc2ccccc2)C(=O)N[C@H](C(=O)N2CCC(C(=O)O)C2)Cc2ccc(cc2)N1 (some centres unmarked) [Compound 353] ([d(hPhe)][Bip][dF][Phe(4-NH2)]-X1; linker N-4 via Suc)	–
> 100	O=C(O)CCCNC(=O)[C@@H]1Cc2ccc(cc2)NC(=O)CCC(=O)N[C@H](CCc2ccccc2)C(=O)N[C@@H](Cc2ccc(-c3ccccc3)cc2)C(=O)N[C@H](Cc2ccccc2)C(=O)N1 [Compound 354] ([d(hPhe)][Bip][dF][Phe(4-NH2)][GABA]-OH; linker N-4 via Suc)	–
> 100	CN(C)C(=O)[C@@H]1Cc2ccc(cc2)NC(=O)CCC(=O)N[C@H](CCc2ccccc2)C(=O)N[C@@H](Cc2ccc(-c3ccccc3)cc2)C(=O)N[C@H](Cc2ccccc2)C(=O)N1 [Compound 370] ([d(hPhe)][Bip][dF][Phe(4-NH2)]-NMe2; linker N-4 via Suc)	–
> 100	N[C@@H]1CC(=O)Nc2ccc(cc2)C[C@@H](C(=O)O)NC(=O)[C@@H](Cc2ccccc2)NC(=O)[C@H](Cc2ccc(-c3ccccc3)cc2)NC(=O)[C@@H](Cc2cccs2)NC1=O [Compound 372] (H-[dD][d2Thi][Bip][dF][Phe(4-NH2)]-OH; lactam 1-5)	–
> 100	N[C@H]1CC(=O)N[C@H](Cc2cccs2)C(=O)N[C@@H](Cc2ccc(-c3ccccc3)cc2)C(=O)N[C@H](Cc2ccccc2)C(=O)N[C@H](C(=O)O)Cc2ccc(cc2)NC1=O [Compound 373]	–

Further lines, the compound ahead of its results:

Structure (SMILES)	IC50 [1] [µM]	IC50 [2] [µM]
O=C(O)CNC(=O)[C@@H]1Cc2ccc(cc2)OCC(=O)N[C@@H](Cc2cccs2)C(=O)N[C@@H](Cc2ccc(-c3ccccc3)cc2)C(=O)N[C@@H](Cc2ccccc2)C(=O)N1 [Compound 329]	< 10	–
COc1ccc(-c2ccc(C[C@@H]3NC(=O)[C@@H](Cc4cccs4)NC(=O)[C@H](O)[C@@H](O)C(=O)Nc4ccc(cc4)C[C@@H](C(=O)O)NC(=O)[C@@H](Cc4ccccc4)NC3=O)cc2)cc1 [Compound 333]	30 to 100	–
O=C(O)[C@@H]1Cc2ccc(cc2)NC(=O)[C@H](O)[C@@H](O)C(=O)N[C@H](Cc2cccs2)C(=O)N[C@@H](Cc2ccc(-c3ccc(F)cc3)cc2)C(=O)N[C@H](Cc2ccccc2)C(=O)N1 [Compound 334]	30 to 100	–
O=C1COc2ccc(cc2)C[C@@H](C(=O)NCCO)NC(=O)[C@H](Cc2ccccc2)NC(=O)[C@H](Cc2ccc(-c3ccccc3)cc2)NC(=O)[C@H](Cc2cccs2)N1 [Compound 338]	–	10 to 30
O=C(O)C[C@H](NC(=O)[C@@H]1Cc2ccc(cc2)OCC(=O)N[C@@H](Cc2cccs2)C(=O)N[C@@H](Cc2ccc(-c3ccccc3)cc2)C(=O)N[C@@H](Cc2ccccc2)C(=O)N1)C(=O)O [Compound 345]	30 to 100	–
CC(C)(C)Oc1ccc(C[C@@H]2NC(=O)[C@H](Cc3ccc(-c4ccccc4)cc3)NC(=O)[C@H](Cc3cccs3)NC(=O)COc3ccc(cc3)C[C@@H](C(=O)O)NC2=O)cc1 [Compound 347]	30 to 100	–
CC(C)(C)OC(=O)CC[C@@H]1NC(=O)[C@@H](Cc2ccc(-c3ccccc3)cc2)NC(=O)[C@H](Cc2cccs2)NC(=O)COc2ccc(cc2)C[C@@H](C(=O)O)NC1=O [Compound 349]	10 to 30	–
O=C1COc2ccc(cc2)C[C@@H](C(=O)O)NC(=O)[C@H](Cc2ccccc2)NC(=O)[C@@H](Cc2ccc(F)cc2)NC(=O)[C@H](Cc2cccs2)N1 [Compound 355]	> 100	–
O=C1COc2ccc(cc2)C[C@@H](C(=O)O)NC(=O)[C@H](Cc2ccccc2)NC(=O)[C@@H](Cc2cccc(Cl)c2)NC(=O)[C@H](Cc2cccs2)N1 [Compound 356]	> 100	–
O=C1COc2ccc(cc2)C[C@@H](C(=O)O)NC(=O)[C@H](Cc2ccccc2)NC(=O)[C@@H](Cc2cccc3ccccc23)NC(=O)[C@H](Cc2cccs2)N1 [Compound 357]	> 100	–
O=C1COc2ccc(cc2)CC(C(=O)O)NC(=O)C(Cc2ccccc2)NC(=O)C(Cc2ccc([N+](=O)[O-])cc2)NC(=O)C(Cc2cccs2)N1 (centres unmarked) [Compound 358]	–	> 100
O=C1COc2ccc(cc2)C[C@@H](C(=O)O)NC(=O)[C@H](Cc2ccccc2)NC(=O)[C@H](Cc2ccc(Br)cc2)NC(=O)[C@H](Cc2cccs2)N1 [Compound 359]	> 100	–
NCCCC[C@H](NC(=O)[C@@H]1Cc2ccc(cc2)NC(=O)[C@H](O)[C@@H](O)C(=O)N[C@H](Cc2cccs2)C(=O)N[C@@H](Cc2ccc(-c3ccccc3)cc2)C(=O)N[C@H](Cc2ccccc2)C(=O)N1)C(=O)O [Compound 360]	> 100	–
O=C1COc2ccc(cc2)C[C@@H](C(=O)O)NC(=O)[C@H](Cc2ccccc2)NC(=O)[C@H](Cc2ccc(-c3ccc(C(=O)O)cc3)cc2)NC(=O)[C@H](Cc2cccs2)N1 [Compound 361]	> 100	–
O=C1COc2ccc(cc2)C[C@@H](C(=O)O)NC(=O)[C@H](Cc2ccccc2)NC(=O)[C@H](Cc2ccc(-c3ccc(Cl)cc3)cc2)NC(=O)[C@H](Cc2cccs2)N1 [Compound 365]	30 to 100	–
O=C1COc2ccc(cc2)C[C@@H](C(=O)O)NC(=O)[C@H](Cc2ccccc2)NC(=O)[C@H](Cc2ccc(Cl)cc2Cl)NC(=O)[C@H](Cc2cccs2)N1 [Compound 367]	> 100	–
O=C1COc2ccc(cc2)C[C@@H](C(=O)O)NC(=O)[C@H](c2ccccc2)NC(=O)[C@@H](Cc2ccc(-c3ccccc3)cc2)NC(=O)[C@H](Cc2cccs2)N1 [Compound 368]	> 100	–
N[C@H]1CC(=O)Nc2ccc(cc2)C[C@@H](C(=O)O)NC(=O)[C@@H](Cc2ccccc2)NC(=O)[C@H](Cc2ccc(-c3ccccc3)cc2)NC(=O)[C@@H](Cc2cccs2)NC1=O [Compound 371] (H-D[d2Thi][Bip][dF][Phe(4-NH2)]-OH; lactam 1-5)	> 100	–
